Assays:
IGF-1 receptor = assay: IGF-1 assay: displacement of [125I] ligand from human placental membranes; format: binding; details: relative to IGF-1 = 100, human placental membrane protein, 24 hours at 4°C, from EC50 values of displacement curves
Experimental: (§1) Measurements of insulin and IGF-1 activities were accomplished in substantial accordance with the teaching of Gruppuso, et al. (1988) J. of Clin. Endocrin. and Metab. 67:194-197. Briefly, 30-50 µg of human placental membrane protein was incubated with approximately 10 femtomoles of [^125I] ligand in a final volume of 500 µl of 100 mM HEPES, pH 7.8, 120mM NaCl, 5mM KCl, 1.2mM MgSO4, 8mM glucose and 0.25% BSA for 24 hours at 4°C. Membranes were collected on glass fiber filters pre-treated with 0.1% polyethyleneimine by using a cell harvester (Skatron, Lier, Norway). Binding data were analyzed by fitting displacement curves to a four parameter model employing Prefit/Allfit® software for the determination of EC50 values.

insulin receptor = assay: Insulin assay: displacement of [125I] ligand from human placental membranes; format: binding; details: relative to human insulin = 100, human placental membrane protein, 24 hours at 4°C, from EC50 values of displacement curves
Experimental: as §1

%IGF-1 Activity (IGF-1 receptor): 23%
%Insulin Activity (insulin receptor): 34%
Substance: bCa: single-chain human insulin B-chain and A-chain joined by Bridging Peptide GLY-TYR-GLY-SER-SER-SER-ARG-ARG-ALA-PRO-GLN-THR; made by solid-phase synthesis
